According to patent publication EP2758401B1 (Bayer Intellectual Property GmbH, priority 2011, dated 2013):

How the values were obtained:
[1] = biological target: T1, MKNK1 (Homo sapiens, UniProt Q9BUB5, T385D); assay: MKNK1 kinase high ATP assay (TR-FRET); format: biochemical; details: ATP final conc. 2 mM; 15 min pre-incubation; reaction time 30 min at 22°C
T1 construct: GST (N); purchased Carna Biosciences 02-145; host or cells: insect cells (baculovirus expression system)
Protocol: MKNK1-inhibitory activity at high ATP of compounds of the present invention after their preincubation with MKNK1 was quantified employing the TR-FRET-based MKNK1 high ATP assay as described in the following paragraphs.
As substrate for the kinase reaction the biotinylated peptide biotin-Ahx-[…] (C-terminus in amide form) was used, which can be purchased e.g. from the company Biosyntan (Berlin-Buch, Germany).
For the assay 50 nL of a 100fold concentrated solution of the test compound in DMSO was pipetted into a black low volume 384well microtiter plate (Greiner Bio-One, Frickenhausen, Germany), 2 µL of a solution of MKNK1 in aqueous assay buffer [50 mM HEPES pH 7.5, 5 mM magnesium chloride, 1.0 mM dithiothreitol, 0.005% (v/v) Nonidet-P40 (Sigma)] was added and the mixture was incubated for 15 min at 22°C to allow pre-binding of the test compounds to the enzyme before the start of the kinase reaction. Then the kinase reaction was started by the addition of 3 µL of a solution of adenosine-tri-phosphate (ATP, 3.3 mM => final conc. in the 5 µL assay volume is 2 mM) and substrate (0.1 µM => final conc. in the 5 µL assay volume is 0.06 µM) in assay buffer and the resulting mixture was incubated for a reaction time of 30 min at 22°C. The concentration of MKNK1 was adjusted depending of the activity of the enzyme lot and was chosen appropriate to have the assay in the linear range, typical concentrations were in the range of 0.003 µg/mL. The reaction was stopped by the addition of 5 µL of a solution of TR-FRET detection reagents (5 nM streptavidine-XL665 [Cisbio Bioassays, Codolet, France] and 1 nM anti-ribosomal protein S6 (pSer236)-antibody from Invitrogen [# 44921G] and 1 nM LANCE EU-W1024 labeled ProteinG [Perkin-Elmer, product no. AD0071]) in an aqueous EDTA-solution (100 mM EDTA, 0.1 % (w/v) bovine serum albumin in 50 mM HEPES pH 7.5).
(§1) The resulting mixture was incubated for 1 h at 22°C to allow the formation of complex between the phosphorylated biotinylated peptide and the detection reagents. Subsequently the amount of phosphorylated substrate was evaluated by measurement of the resonance energy transfer from the Eu-chelate to the streptavidine-XL. Therefore, the fluorescence emissions at 620 nm and 665 nm after excitation at 350 nm were measured in a TR-FRET reader, e.g. a Rubystar (BMG Labtechnologies, Offenburg, Germany) or a Viewlux (Perkin-Elmer). The ratio of the emissions at 665 nm and at […] was taken as the measure for the amount of phosphorylated substrate. The data were normalised (enzyme reaction without inhibitor = 0 % inhibition, all other assay components but no enzyme = 100 % inhibition).

[2] = biological target: T1, MKNK1; assay: MKNK1 kinase assay (TR-FRET); format: biochemical; details: ATP final conc. 10 µM; 15 min pre-incubation; reaction time 45 min at 22°C
Protocol: MKNK1-inhibitory activity of compounds of the present invention was quantified employing the MKNK1 TR-FRET assay as described in the following paragraphs.
As substrate for the kinase reaction the biotinylated peptide biotin-Ahx-[…] (C-terminus in amide form) was used which can be purchased e.g. form the company Biosyntan (Berlin-Buch, Germany).
For the assay 50 nL of a 100fold concentrated solution of the test compound in DMSO was pipetted into a black low volume 384well microtiter plate (Greiner Bio-One, Frickenhausen, Germany), 2 µL of a solution of MKNK1 in aqueous assay buffer [50 mM HEPES pH 7.5, 5 mM magnesium chloride, 1.0 mM dithiothreitol, 0.005% (v/v) Nonidet-P40 (Sigma)] was added and the mixture was incubated for 15 min at 22°C to allow pre-binding of the test compounds to the enzyme before the start of the kinase reaction. Then the kinase reaction was started by the addition of 3 µL of a solution of adenosine-tri-phosphate (ATP, 16.7 µM => final conc. in the 5 µL assay volume is 10 µM) and substrate (0.1 µM => final conc. in the 5 µL assay volume is 0.06 µM) in assay buffer and the resulting mixture was incubated for a reaction time of 45 min at 22°C.
as §1, with “inhibition). […] Table 1: MKNK1 IC50s” for “inhibition).”

T1 sequence (Q9BUB5 1-424 isoform Q9BUB5-2 T344D): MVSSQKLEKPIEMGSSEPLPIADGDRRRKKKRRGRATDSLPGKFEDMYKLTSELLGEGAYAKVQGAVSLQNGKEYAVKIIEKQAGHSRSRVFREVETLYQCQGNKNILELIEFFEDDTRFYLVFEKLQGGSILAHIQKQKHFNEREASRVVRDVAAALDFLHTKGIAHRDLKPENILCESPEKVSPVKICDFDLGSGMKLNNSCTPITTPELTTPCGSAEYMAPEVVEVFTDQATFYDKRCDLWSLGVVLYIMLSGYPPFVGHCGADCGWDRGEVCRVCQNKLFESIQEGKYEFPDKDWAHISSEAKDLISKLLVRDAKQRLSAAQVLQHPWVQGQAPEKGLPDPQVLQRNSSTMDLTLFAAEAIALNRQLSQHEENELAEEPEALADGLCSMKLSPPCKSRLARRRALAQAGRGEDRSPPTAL

Molecule	IC50 [1]	IC50 [2]
1-{[3-(1-Benzofuran-2-yl)imidazo[1,2-b]pyridazin-6-yl]oxy}-2-methylpropan-2-amine [Example 29]	59 nM	17 nM
COc1cccc2oc(-c3cnc4ccc(OCCCCN)nn34)cc12 [Example 1, 4-{[3-(4-Methoxy-1-benzofuran-2-yl)imidazo[1,2-b]pyridazin-6-yl]oxy}butan-1-amine]	5 nM	3 nM
N[C@H]1C[C@H](Oc2ccc3ncc(-c4cc5ccccc5o4)n3n2)C1 [Example 2, trans-3-{[3-(1-Benzofuran-2-yl)imidazo[1,2-b]pyridazin-6-yl]oxy}cyclobutan-amine]	6 nM	5 nM
N[C@H]1C[C@@H](Oc2ccc3ncc(-c4cc5ccccc5o4)n3n2)C1 [Example 3, cis-3-{[3-(1-Benzofuran-2-yl)imidazo[1,2-b]pyridazin-6-yl]oxy}cyclobutan-amine]	17 nM	4 nM
COc1cccc2oc(-c3cnc4ccc(OCCCN)nn34)cc12 [Example 4, 3-{[3-(4-Methoxy-1-benzofuran-2-yl)imidazo[1,2-b]pyridazin-6-yl]oxy}propan-1-amine]	15 nM	5 nM
COc1cccc2oc(-c3cnc4ccc(OCCN)nn34)cc12 [Example 5, 2-{[3-(4-Methoxy-1-benzofuran-2-yl)imidazo[1,2-b]pyridazin-6-yl]oxy}ethan-amine]	18 nM	6 nM
COc1ccc2oc(-c3cnc4ccc(OCCN)nn34)cc2c1 [Example 6, 2-{[3-(5-Methoxy-1-benzofuran-2-yl)imidazo[1,2-b]pyridazin-6-yl]oxy}ethan-amine]	13 nM	6 nM
C[C@H](N)COc1ccc2ncc(-c3cc4ccccc4o3)n2n1 [Example 7, (2S)-1-{[3-(1-Benzofuran-2-yl)imidazo[1,2-b]pyridazin-6-yl]oxy}propan-2-amine]	18 nM	7 nM
NCCCCOc1ccc2ncc(-c3cc4ccccc4o3)n2n1 [Example 8, 4-{[3-(1-Benzofuran-2-yl)imidazo[1,2-b]pyridazin-6-yl]oxy}butan-1-amine]	17 nM	7 nM
COc1ccc2oc(-c3cnc4ccc(OCCCN)nn34)cc2c1 [Example 9, 3-{[3-(5-Methoxy-1-benzofuran-2-yl)imidazo[1,2-b]pyridazin-6-yl]oxy}propan-1-amine]	22 nM	7 nM
NCCOCCOc1ccc2ncc(-c3cc4ccccc4o3)n2n1 [Example 21, 2-(2-{[3-(1-Benzofuran-2-yl)imidazo[1,2-b]pyridazin-6-yl]oxy}ethoxy)ethan-amine]	14 nM	
N[C@@H]1CCCC[C@H]1Oc1ccc2ncc(-c3cc4ccccc4o3)n2n1 [Example 23, (1R,2R)-2-{[3-(1-Benzofuran-2-yl)imidazo[1,2-b]pyridazin-6-yl]oxy}cyclohexan-amine]	18 nM	
NC1(COc2ccc3ncc(-c4cc5ccccc5o4)n3n2)CCC1 [Example 27, 1-({[3-(1-Benzofuran-2-yl)imidazo[1,2-b]pyridazin-6-yl]oxy}methyl)cyclobutan-amine]	29 nM	
C=CCCC(CN)Oc1ccc2ncc(-c3cc4ccccc4o3)n2n1 (centres unmarked) [Example 28, 2-{[3-(1-Benzofuran-2-yl)imidazo[1,2-b]pyridazin-6-yl]oxy}hex-5-en-1-amine]	45 nM	
NCC(CN1CCOCC1)Oc1ccc2ncc(-c3cc4ccccc4o3)n2n1 (centres unmarked) [Example 31, 2-{[3-(1-Benzofuran-2-yl)imidazo[1,2-b]pyridazin-6-yl]oxy}-3-(morpholin-4-yl)-propan-1-amine]	78 nM	
NC(COc1ccc2ncc(-c3cc4ccccc4o3)n2n1)C1CCOCC1 (centres unmarked) [Example 32, 2-{[3-(1-Benzofuran-2-yl)imidazo[1,2-b]pyridazin-6-yl]oxy}-1-(tetrahydro-2H-pyran-4-yl)ethanamine]	79 nM	
NCC(Cc1ccc(F)cc1)Oc1ccc2ncc(-c3cc4ccccc4o3)n2n1 (centres unmarked) [Example 53, 2-{[3-(1-Benzofuran-2-yl)imidazo[1,2-b]pyridazin-6-yl]oxy}-3-(4-fluorophenyl)-propan-1-amine]	46 nM	
NCC(Cc1ccncc1)Oc1ccc2ncc(-c3cc4ccccc4o3)n2n1 (centres unmarked) [Example 54, 2-{[3-(1-Benzofuran-2-yl)imidazo[1,2-b]pyridazin-6-yl]oxy}-3-(pyridin-4-yl)-propan-1-amine]	19 nM	
NC[C@H](Oc1ccc2ncc(-c3cc4ccccc4o3)n2n1)c1cccnc1 [Example 55, (2R)-2-{[3-(1-benzofuran-2-yl)imidazo[1,2-b]pyridazin-6-yl]oxy}-2-(pyridin-3-yl)ethanamine]		16 nM
NCC(Oc1ccc2ncc(-c3cc4ccccc4o3)n2n1)c1ccc(F)cc1 (centres unmarked) [Example 56, 2-{[3-(1-benzofuran-2-yl)-imidazo-[1,2-b]-pyridazin-6-yl]oxy}-2-(4-fluorophenyl)-ethanamine]		40 nM
NCC(Oc1ccc2ncc(-c3cc4ccccc4o3)n2n1)c1ccccn1 (centres unmarked) [Example 57, 2-{[3-(1-benzofuran-2-yl)-imidazo-[1,2-b]-pyridazin-6-yl]oxy}-2-(pyridin-2-yl)-ethanamine]		94 nM
CC(C)Oc1cccc(C(CN)Oc2ccc3ncc(-c4cc5ccccc5o4)n3n2)c1 (centres unmarked) [Example 58, 2-{[3-(1-benzofuran-2-yl)-imidazo-[1,2-b]-pyridazin-6-yl]oxy}-2-(3-iso-propoxyphenyl)-ethanamine]		20 nM
NCC(Oc1ccc2ncc(-c3cc4ccccc4o3)n2n1)c1cccc(C(F)(F)F)c1 (centres unmarked) [Example 59, 2-{[3-(1-benzofuran-2-yl)-imidazo-[1,2-b]-pyridazin-6-yl]oxy}-2-[3-(trifluoromethyl)-phenyl]-ethanamine]		37 nM
NCC(Oc1ccc2ncc(-c3cc4ccccc4o3)n2n1)c1ccc(F)cc1F (centres unmarked) [Example 60, 2-{[3-(1-benzofuran-2-yl)-imidazo-[1,2-b]-pyridazin-6-yl]oxy}-2-(2,4-difluorophenyl)-ethanamine]		39 nM
N[C@H](COc1ccc2ncc(-c3cc4ccccc4o3)n2n1)c1ccc(F)cc1 [Example 61, (1S)-2-{[3-(1-benzofuran-2-yl)imidazo[1,2-b]pyridazin-6-yl]oxy}-1-(4-fluorophenyl)ethanamine]		29 nM
N[C@H](COc1ccc2ncc(-c3cc4ccccc4o3)n2n1)c1ccc(Cl)cc1 [Example 62, (1S)-2-{[3-(1-benzofuran-2-yl)imidazo[1,2-b]pyridazin-6-yl]oxy}-1-(4-chlorophenyl)ethanamine]		31 nM
NC(COc1ccc2ncc(-c3cc4ccccc4o3)n2n1)c1cccnc1 (centres unmarked) [Example 63, 2-{[3-(1-benzofuran-2-yl)imidazo[1,2-b]pyridazin-6-yl]oxy}-1-(pyridin-3-yl)ethanamine]		54 nM
NCCC(Oc1ccc2ncc(-c3cc4ccccc4o3)n2n1)c1ccc(F)cc1 (centres unmarked) [Example 64]		57 nM
